ChEMBL document CHEMBL1201862, “PubChem BioAssay data set” (2004)
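Results reflect a 48-hour exposure of cells in 96-well plates to compound at five concentrations. GI50 marks 50% less growth.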 The source made the active and inactive calls. Cut-off read from the data, not from the text of the source: active = GI50 up to about 1.1 µM and inactive = higher.

Legend:
Assay in all cases: growth of human tumour cells (NCI), 48 h
786-0 = test system: 786-0
A498 = test system: A498
A549 = test system: A549
ACHN = test system: ACHN
BT-549 = test system: BT-549
CAKI-1 = test system: CAKI-1
CCRF-CEM = test system: CCRF-CEM
COLO 205 = test system: COLO 205
DU-145 = test system: DU-145
EKVX = test system: EKVX
HCC 2998 = test system: HCC 2998
HCT-116 = test system: HCT-116
HCT-15 = test system: HCT-15
HL-60 = test system: HL-60
HOP-62 = test system: HOP-62
HOP-92 = test system: HOP-92
HT-29 = test system: HT-29
IGROV-1 = test system: IGROV-1
K562 = test system: K562
KM12 = test system: KM12
LOX IMVI = test system: LOX IMVI
M14 = test system: M14
MCF7 = test system: MCF7
MDA-MB-231 = test system: MDA-MB-231
MDA-MB-435 = test system: MDA-MB-435
MDA-N = test system: MDA-N
MOLT-4 = test system: MOLT-4
NCI-H226 = test system: NCI-H226
NCI-H23 = test system: NCI-H23
NCI-H460 = test system: NCI-H460
NCI-H522 = test system: NCI-H522
NCI/ADR-RES = test system: NCI/ADR-RES
OVCAR-3 = test system: OVCAR-3
OVCAR-4 = test system: OVCAR-4
OVCAR-5 = test system: OVCAR-5
OVCAR-8 = test system: OVCAR-8
PC-3 = test system: PC-3
RPMI-8226 = test system: RPMI-8226
RXF 393 = test system: RXF 393
SF-268 = test system: SF-268
SF-295 = test system: SF-295
SK-MEL-28 = test system: SK-MEL-28
SK-MEL-2 = test system: SK-MEL-2
SK-MEL-5 = test system: SK-MEL-5
SK-OV-3 = test system: SK-OV-3
SN12C = test system: SN12C
SNB-19 = test system: SNB-19
SNB-75 = test system: SNB-75
SR = test system: SR
SW-620 = test system: SW-620
T47D = test system: T47D
TK-10 = test system: TK-10
U-251 = test system: U-251
UACC-257 = test system: UACC-257
UACC-62 = test system: UACC-62
UO-31 = test system: UO-31
Hs-578T = test system: Hs-578T
Malme-3M = test system: Malme-3M
SF-539 = test system: SF-539

## CN1C(=O)[C@@]2(C=CC3(CC2)OCCO3)c2ccccc21
786-0
  GI50: > 50 µM (inactive)
A498
  GI50: > 50 µM (inactive)
A549
  GI50: > 50 µM (inactive)
ACHN
  GI50: 49.5 µM (inactive)
BT-549
  GI50: > 50 µM (inactive)
CAKI-1
  GI50: > 50 µM (inactive)
CCRF-CEM
  GI50: > 50 µM (inactive)
COLO 205
  GI50: > 50 µM (inactive)
DU-145
  GI50: > 50 µM (inactive)
EKVX
  GI50: 49.2 µM (inactive)
HCC 2998
  GI50: > 50 µM (inactive)
HCT-116
  GI50: > 50 µM (inactive)
HCT-15
  GI50: > 48.2 µM
HL-60
  GI50: 35.7 µM (inactive)
HOP-62
  GI50: > 32.1 µM (inactive)
HOP-92
  GI50: > 50 µM (inactive)
HT-29
  GI50: > 50 µM (inactive)
IGROV-1
  GI50: 0.48 µM (active)
K562
  GI50: > 50 µM (inactive)
KM12
  GI50: > 37.5 µM (inactive)
LOX IMVI
  GI50: > 50 µM (inactive)
M14
  GI50: > 50 µM (inactive)
MCF7
  GI50: 48.5 µM (inactive)
MDA-MB-231
  GI50: > 50 µM (inactive)
MDA-MB-435
  GI50: > 45 µM (inactive)
MDA-N
  GI50: > 50 µM (inactive)
MOLT-4
  GI50: > 46.3 µM (inactive)
NCI-H226
  GI50: > 50 µM (inactive)
NCI-H23
  GI50: 21.8 µM (inactive)
NCI-H460
  GI50: > 50 µM (inactive)
NCI-H522
  GI50: 8.53 µM (inactive)
NCI/ADR-RES
  GI50: > 50 µM (inactive)
OVCAR-3
  GI50: > 50 µM (inactive)
OVCAR-4
  GI50: > 50 µM (inactive)
OVCAR-5
  GI50: > 50 µM (inactive)
OVCAR-8
  GI50: > 50 µM (inactive)
PC-3
  GI50: > 45.4 µM (inactive)
RPMI-8226
  GI50: > 50 µM (inactive)
RXF 393
  GI50: > 50 µM (inactive)
SF-268
  GI50: 10.3 µM (inactive)
SF-295
  GI50: > 50 µM (inactive)
SK-MEL-28
  GI50: > 50 µM (inactive)
SK-MEL-2
  GI50: > 50 µM (inactive)
SK-MEL-5
  GI50: > 50 µM (inactive)
SK-OV-3
  GI50: > 50 µM (inactive)
SN12C
  GI50: > 50 µM (inactive)
SNB-19
  GI50: > 50 µM (inactive)
SNB-75
  GI50: > 25.9 µM (inactive)
SR
  GI50: > 50 µM (inactive)
SW-620
  GI50: > 50 µM (inactive)
T47D
  GI50: 35 µM (inactive)
TK-10
  GI50: > 50 µM (inactive)
U-251
  GI50: > 50 µM (inactive)
UACC-257
  GI50: > 50 µM (inactive)
UACC-62
  GI50: > 50 µM (inactive)
UO-31
  GI50: > 50 µM (inactive)

## CNC(=S)N/N=C(\C(=N/NC(=S)NC)c1ccccn1)c1ccccn1
786-0
  GI50: 5.71 µM (inactive)
A498
  GI50: 4.58 µM (inactive)
A549
  GI50: 5.74 µM (inactive)
ACHN
  GI50: 2.99 µM (inactive)
BT-549
  GI50: 14.4 µM (inactive)
CAKI-1
  GI50: 5.04 µM (inactive)
COLO 205
  GI50: 1.41 µM (inactive)
DU-145
  GI50: 8.05 µM (inactive)
EKVX
  GI50: 1.63 µM (inactive)
HCC 2998
  GI50: > 23 µM (inactive)
HCT-116
  GI50: < 0.0306 µM (active)
HCT-15
  GI50: 0.232 µM
HOP-62
  GI50: 7.78 µM (inactive)
HOP-92
  GI50: 15.2 µM (inactive)
HT-29
  GI50: < 0.01 µM (active)
Hs-578T
  GI50: 5.38 µM (inactive)
IGROV-1
  GI50: 0.759 µM (active)
K562
  GI50: 4.55 µM (inactive)
KM12
  GI50: 14.2 µM (inactive)
LOX IMVI
  GI50: 4.82 µM (inactive)
M14
  GI50: 2.14 µM (inactive)
MCF7
  GI50: < 0.0355 µM (active)
MDA-MB-435
  GI50: 13.8 µM (inactive)
MDA-N
  GI50: 44.3 µM (inactive)
Malme-3M
  GI50: 4.73 µM (inactive)
NCI-H226
  GI50: 2 µM (inactive)
NCI-H23
  GI50: 9.12 µM (inactive)
NCI-H460
  GI50: 0.348 µM (active)
NCI-H522
  GI50: 1.77 µM (inactive)
NCI/ADR-RES
  GI50: < 0.02 µM (active)
OVCAR-3
  GI50: 0.31 µM (active)
OVCAR-4
  GI50: 10.9 µM (inactive)
OVCAR-8
  GI50: 0.687 µM (active)
PC-3
  GI50: 1.03 µM (active)
RPMI-8226
  GI50: 32.8 µM (inactive)
RXF 393
  GI50: 5.07 µM (inactive)
SF-268
  GI50: 1.19 µM (inactive)
SF-295
  GI50: 3.15 µM (inactive)
SF-539
  GI50: 45.8 µM (inactive)
SK-MEL-28
  GI50: 29 µM (inactive)
SK-MEL-2
  GI50: 14.3 µM (inactive)
SK-MEL-5
  GI50: 1.53 µM (inactive)
SK-OV-3
  GI50: 0.726 µM (active)
SN12C
  GI50: 4.08 µM (inactive)
SNB-19
  GI50: 10.3 µM (inactive)
SNB-75
  GI50: 20.8 µM (inactive)
SW-620
  GI50: 1.24 µM (inactive)
TK-10
  GI50: 4.04 µM (inactive)
U-251
  GI50: 0.289 µM (active)
UACC-257
  GI50: 1.82 µM (inactive)
UACC-62
  GI50: 4.59 µM (inactive)
UO-31
  GI50: 2.48 µM (inactive)
